Tests used:
[1] = Concentration of radioactivity in the brown fat following repeated oral administration of [14C] aliskiren hemifumarate at 100 mg.Kg-1 level studied at 24h after 3rd dose in rat; type: ADME, organism-based, Albino HAN:WIST, Brown adipose tissue; conditions: in vivo
[2] = Mean excretion of radioactivity (0-24h) in urine and faeces following single intravenous dose of 10 mg.Kg-1 [14C] aliskiren hemifumarate in mouse; type: ADME, organism-based, TgRasH2, Urine/Feces; conditions: in vivo
Cytochrome P450 3A7 = Cytochrome P450 3A7 (Homo sapiens, UniProt P24462); assay: Metabolic clearance (ul.min.nmol-1 CYP) of aliskiren hemifumarate for CYP3A7 was determined in human liver microsome incubated with [14C]SPP100 hemifumarate; type: ADME; conditions: microsomes
Cytochrome P450 3A4/3A5 = Cytochrome P450 3A4/3A5 (Homo sapiens, UniProt P08684+P20815); assay: Estimated contribution of CYP3A4/5 to oxidative metabolism of [14C] aliskiren hemifumarate based on studies with microsomes from baculovirus-infected insect cells expressing recombinant human CYP450s and studies with pooled human liver microsomes from 22 donors; type: ADME, Microsome
[3] = Excretion of radioactivity (0-24h) in faeces following single oral dose of 500 mg.Kg-1 [14C] aliskiren hemifumarate in mouse; type: ADME, organism-based, TgRasH2, Feces; conditions: in vivo
[4] = % of radioactivity (24h) recovered in urine following single intravenous administration of 10 mg.Kg-1 [14C] aliskiren hemifumarate in male rat; type: ADME, organism-based, HAN:WIST(SPF); conditions: in vivo
[5] = Total excretion (0-96h) of radioactivity in urine, faeces and cage wash following single intravenous dose of 10 mg.Kg-1 [14C] aliskiren hemifumarate in mouse; type: ADME, organism-based, Urine/Feces; conditions: rat, in vivo
[6] = Biliary elimination of aliskiren following single oral dose of [14C] aliskiren hemifumarate at 500 mg.Kg-1 level in mouse; type: ADME, organism-based, TgRasH2, Bile; conditions: in vivo
[7] = AUC/dose (0-168h) of total radioactivity following single oral administration of [14C] aliskiren hemifumarate at 3 mg.Kg-1 level in marmoset; type: ADME, organism-based, Callithrix jacchus, Plasma; conditions: in vivo
[8] = Mean excretion of radioactivity (48-72h) in urine and faeces following single intravenous dose of 10 mg.Kg-1 [14C] aliskiren hemifumarate in mouse; type: ADME, organism-based, TgRasH2, Urine/Feces; conditions: in vivo
[9] = Excretion of radioactivity (72-96h) in faeces following single intravenous dose of 10 mg.Kg-1 [14C] aliskiren hemifumarate in rat; type: ADME, organism-based, Albino HAN:WIST, Feces; conditions: in vivo
[10] = Cmax (0-168h) of total radioactivity following single intravenous administration of [14C] aliskiren hemifumarate at 1 mg.Kg-1 level in marmoset; type: ADME, organism-based, Callithrix jacchus, Plasma; conditions: in vivo
CYP1A2 = molecular target: T1, CYP1A2 (Homo sapiens, UniProt P05177); assay: Inhibitory activity of 20 uM SPP100 on 545 Pmoles of cDNA-derived CYP1A2 enzyme in microsome prepared from human lymphoblastoid cell line; type: ADME, microsomes; set-up: conc 20 uM, interact cpd conc 50 uM; conditions: probe phenacetin
T1 sequence (P05177 whole entry): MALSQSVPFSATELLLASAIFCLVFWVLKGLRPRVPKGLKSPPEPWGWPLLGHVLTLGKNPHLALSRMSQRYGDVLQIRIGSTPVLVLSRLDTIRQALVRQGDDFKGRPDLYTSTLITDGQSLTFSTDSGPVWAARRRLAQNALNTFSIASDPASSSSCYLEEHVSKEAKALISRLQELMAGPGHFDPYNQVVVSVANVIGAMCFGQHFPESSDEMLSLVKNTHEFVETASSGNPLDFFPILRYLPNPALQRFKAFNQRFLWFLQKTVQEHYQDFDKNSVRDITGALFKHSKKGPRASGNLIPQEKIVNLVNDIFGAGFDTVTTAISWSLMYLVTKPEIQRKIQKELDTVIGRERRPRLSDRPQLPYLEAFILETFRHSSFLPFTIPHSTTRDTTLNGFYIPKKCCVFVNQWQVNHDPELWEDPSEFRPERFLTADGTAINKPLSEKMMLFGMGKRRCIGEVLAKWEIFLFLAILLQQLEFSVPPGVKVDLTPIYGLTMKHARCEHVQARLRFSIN

[11] = % SPP100 (0-72h) recovered in faeces following single intravenous dose of [14C] aliskiren hemifumarate at 1 mg.Kg-1 level in marmoset; type: ADME, organism-based, Callithrix jacchus, Feces; conditions: in vivo
CYP2D6 = CYP2D6 (Homo sapiens, UniProt P10635); assay: Inhibition of CYP2D6 in human liver microsomes from 10 healthy donors at 200 uM aliskiren (SPP100); type: ADME, Microsome; set-up: conc 200 uM; conditions: probe bufuralol (1'-hydroxylation)
[12] = % SPP100 recovered of receiver rat following duodenal infusion of radioactivity through bile from donor rat treated with single intravenous administration of 10 mg.Kg-1 [14C] aliskiren hemifumarate; type: ADME, organism-based, HAN:WIST(SPF); conditions: in vivo
[13] = Bioavailability of aliskiren in receiver rat following duodenal infusion of radioactivity through bile from donor rat treated with single intravenous administration of 10 mg.Kg-1 [14C] aliskiren hemifumarate; type: ADME, organism-based, HAN:WIST(SPF); conditions: in vivo
[14] = AUC of unlabeled aliskiren hemifumarate following single intravenous dose of aliskiren hemifumarate at 10 mg.Kg-1 level in mouse; type: ADME, organism-based; conditions: TgRasH2, mouse, plasma
[15] = Tmax of aliskiren hemifumarate following 2 week oral dosing of aliskiren hemifumarate at 100 mg.Kg-1 level studied on day 14 in female Callithrix jacchus; type: ADME, organism-based; conditions: marmoset, plasma
[16] = t1/2 of aliskiren hemifumarate following 2 week oral dosing of aliskiren hemifumarate at 100 mg.Kg-1 level studied on day 1 in male Callithrix jacchus; type: ADME, organism-based; conditions: marmoset, plasma
[17] = AUC (0-96h) of unlabeled aliskiren hemifumarate following oral administration of aliskiren hemifumarate at 100 mg.Kg-1 level in rat; type: ADME, organism-based; conditions: Albino HAN:WIST, plasma
[18] = Cmax of aliskiren hemifumarate following single dosing of SPP100B oral solution at 40 mg level studied on day 1 in men; type: ADME, organism-based; conditions: male, human, plasma
[19] = Effect of 2 week oral dosing of aliskiren hemifumarate at 100 mg.Kg-1 level on plasma alkaline phosphatase level in female Callithrix jacchus; type: toxicity, organism-based; conditions: marmoset, 336 h
[20] = Effect of 4 week oral dietary dosing of aliskiren hemifumarate at 2000 mg.Kg-1 level on ovarian follicular atresia in female mouse; type: toxicity, organism-based, CB6F1-TGrasH2, Ovarian follicle; conditions: in vivo, 672 h
[21] = Tmax of aliskiren hemifumarate following 2 week oral dosing of aliskiren hemifumarate at 10 mg.Kg-1 level studied on day 1 in male Callithrix jacchus; type: ADME, organism-based; conditions: marmoset, plasma
[22] = AUC (0-24h) of aliskiren hemifumarate following 4 week oral dietary dosing of aliskiren hemifumarate at 1500 mg.Kg-1 level in male mouse; type: ADME, organism-based; conditions: CB6F1-TGrasH2, mouse, plasma
[23] = Cmax of aliskiren hemifumarate following 8 day once-daily dosing of SPP100B oral solution at 160 mg level studied on day 8 in men; type: ADME, organism-based; conditions: male, human, plasma
[24] = Cmax of aliskiren hemifumarate following 2 week oral dosing of aliskiren hemifumarate at 10 mg.Kg-1 level studied on […] in male Callithrix jacchus; type: ADME, organism-based; conditions: marmoset, plasma
[25] = Cmax/dose of aliskiren hemifumarate following 4 week oral dietary dosing of aliskiren hemifumarate at 1000 mg.Kg-1 level in female mouse; type: ADME, organism-based, CB6F1-TGrasH2; conditions: in vivo, 672 h
[26] = Tmax of aliskiren hemifumarate following 4 week oral dietary dosing of aliskiren hemifumarate at 1000 mg.Kg-1 level in male mouse; type: ADME, organism-based; conditions: CB6F1-TGrasH2, mouse, in vivo
[27] = Cmax of aliskiren hemifumarate following 2 week oral dosing of aliskiren hemifumarate at 50 mg.Kg-1 level studied on day 1 in male Callithrix jacchus; type: ADME, organism-based; conditions: marmoset, plasma
[28] = AUCspec of aliskiren hemifumarate following 2 week oral dosing of aliskiren hemifumarate at 10 mg.Kg-1 level studied on day 1 in male Callithrix jacchus; type: ADME, organism-based, Plasma; conditions: marmoset, in vivo, 336 h

Cytochrome P450 3A7, sequence (P24462 whole entry): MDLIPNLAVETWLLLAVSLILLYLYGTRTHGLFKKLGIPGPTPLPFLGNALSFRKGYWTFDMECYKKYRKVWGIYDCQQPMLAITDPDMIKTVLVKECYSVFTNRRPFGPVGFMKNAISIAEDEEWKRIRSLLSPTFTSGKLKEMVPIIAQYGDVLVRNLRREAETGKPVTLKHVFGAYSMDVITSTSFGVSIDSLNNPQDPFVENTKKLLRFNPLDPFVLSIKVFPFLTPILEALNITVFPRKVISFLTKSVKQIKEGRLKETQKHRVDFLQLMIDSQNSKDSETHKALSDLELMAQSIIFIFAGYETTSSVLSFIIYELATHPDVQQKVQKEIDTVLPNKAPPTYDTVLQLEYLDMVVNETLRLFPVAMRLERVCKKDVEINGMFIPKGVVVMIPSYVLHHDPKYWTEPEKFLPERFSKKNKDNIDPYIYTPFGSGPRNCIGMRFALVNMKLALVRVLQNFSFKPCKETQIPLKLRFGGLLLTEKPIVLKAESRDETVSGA
CYP2D6, sequence (P10635 whole entry, the tested form may be a part): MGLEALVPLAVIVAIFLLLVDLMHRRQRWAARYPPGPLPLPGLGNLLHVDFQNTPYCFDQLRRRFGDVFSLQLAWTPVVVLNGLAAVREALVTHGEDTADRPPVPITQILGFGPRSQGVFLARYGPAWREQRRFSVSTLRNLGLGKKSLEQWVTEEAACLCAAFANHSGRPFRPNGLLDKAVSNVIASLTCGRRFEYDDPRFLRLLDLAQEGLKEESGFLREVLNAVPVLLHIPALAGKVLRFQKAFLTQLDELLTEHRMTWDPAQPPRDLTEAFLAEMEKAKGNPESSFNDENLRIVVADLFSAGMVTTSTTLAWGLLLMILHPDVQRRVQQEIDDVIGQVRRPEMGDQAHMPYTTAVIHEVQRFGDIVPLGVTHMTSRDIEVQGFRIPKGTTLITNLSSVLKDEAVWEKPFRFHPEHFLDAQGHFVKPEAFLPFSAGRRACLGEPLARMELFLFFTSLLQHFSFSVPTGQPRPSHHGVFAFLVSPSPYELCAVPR

With `COCCCOc1cc(C[C@@H](C[C@H](N)[C@@H](O)C[C@H](C(=O)NCC([14CH3])([14CH3])C(N)=O)C(C)C)C(C)C)ccc1OC.O=C(O)/C=C/C(=O)O` the Radiolabel recovery [1] was “OUTCOME = Detected”, the Radiolabel recovery [2] was 84.68% and the CL (Cytochrome P450 3A7) was 3.5 µL·min/nmol. The Activity (Cytochrome P450 3A4/3A5) was 99.6%, the Radiolabel recovery [3] was “OUTCOME = Observed/Most of the radioactivity administered was excreted during first 24h after administration and the main route of excretion was the faecal pathway” and the Radiolabel recovery [4] was 6.2%. For the same compound, the Radiolabel recovery [5] was 96.2%, the Radiolabel recovery [6] was “OUTCOME = Observed, VALUE = Elimination of aliskiren occurred mainly via the biliary or faecal route” and the AUC normalised [7] was 1.61 (umol.h/L)/(mg/kg). For the same compound, the Radiolabel recovery [8] was 0.9%, the Radiolabel recovery [9] was 2.07% and the Cmax [10] was 11.4 µM.

With `COCCCOc1cc(C[C@@H](C[C@H](N)[C@@H](O)C[C@H](C(=O)NCC(C)(C)C(N)=O)C(C)C)C(C)C)ccc1OC` the inhibition at 20 µM (CYP1A2) was -5.8%, the Compound recovery [11] was 36% and the inhibition at 200 µM (CYP2D6) was 32.9%. For the same compound, the Compound recovery [12] was 60.4% and the F [13] was less than 3%.

Compound `COCCCOc1cc(C[C@@H](C[C@H](N)[C@@H](O)C[C@H](C(=O)NCC(C)(C)C(N)=O)C(C)C)C(C)C)ccc1OC.COCCCOc1cc(C[C@@H](C[C@H](N)[C@@H](O)C[C@H](C(=O)NCC(C)(C)C(N)=O)C(C)C)C(C)C)ccc1OC.O=C(O)/C=C/C(=O)O` [ALISKIREN FUMARATE] has an AUC [14] of 9.03 µM·h, a Tmax [15] of 2 h and a half-life [16] of 12.8 h. The AUC(0-t) at 96 h [17] was 3.01 µM·h, the Cmax [18] was 5.1 ng/mL and the ALP_CHANGE_TO [19] was “OUTCOME = 2-fold increase over initial values. No animals died during the study”. For the same compound, the “Change in ovarian follicular atresia” value [20] was “OUTCOME = Increased. No animals died during the study”, the Tmax [21] was 1 h and the AUC(0-t) at 24 h [22] was 4140 ng·h/mL. The Cmax [23] was 39.1 ng/mL, the Cmax [24] was 5770 ng/mL and the Cmax normalised [25] was 0.167 (ng/mL)/(mg/kg/day). The Tmax [26] was 3 h, the Cmax [27] was 6290 ng/mL and the AUC normalised [28] was 2.2 ((ug.h.ml-1)/(mg/kg).
